Converted amounts (≈) assume the structure as drawn.
What was measured:
Escherichia coli = experiment: Antibacterial activity against Escherichia coli isolate 35 ATCC 25922; type: functional
[1] = target: T1, UDP-3-O-acyl-N-acetylglucosamine deacetylase (Escherichia coli K-12, UniProt P0A725); experiment: Inhibition of LpxC in Escherichia coli isolate 35 ATCC 25922; set-up: species or system Escherichia coli ATCC 25922
T1 sequence (P0A725 whole entry): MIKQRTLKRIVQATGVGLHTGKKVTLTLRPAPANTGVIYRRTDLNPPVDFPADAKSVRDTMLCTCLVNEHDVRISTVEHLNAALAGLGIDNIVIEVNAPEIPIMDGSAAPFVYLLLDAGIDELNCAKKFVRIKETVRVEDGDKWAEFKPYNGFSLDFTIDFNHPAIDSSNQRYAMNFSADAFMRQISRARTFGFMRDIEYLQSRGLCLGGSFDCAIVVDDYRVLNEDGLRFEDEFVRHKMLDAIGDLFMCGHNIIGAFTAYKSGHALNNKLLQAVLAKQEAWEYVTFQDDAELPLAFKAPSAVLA

Pseudomonas aeruginosa [2] = experiment: Antibacterial activity against Pseudomonas aeruginosa isolate 44 ATCC 27853; type: functional
[3] = Inhibition of LpxC in Acinetobacter baumannii focus ID 961025
[4] = target: T2, UDP-3-O-acyl-N-acetylglucosamine deacetylase (Pseudomonas aeruginosa (strain ATCC 15692 / PAO1 / 1C / PRS 101 / LMG12228), UniProt P47205); experiment: Inhibition of LpxC in Pseudomonas aeruginosa isolate 44 ATCC 27853
T2 sequence (P47205 whole entry): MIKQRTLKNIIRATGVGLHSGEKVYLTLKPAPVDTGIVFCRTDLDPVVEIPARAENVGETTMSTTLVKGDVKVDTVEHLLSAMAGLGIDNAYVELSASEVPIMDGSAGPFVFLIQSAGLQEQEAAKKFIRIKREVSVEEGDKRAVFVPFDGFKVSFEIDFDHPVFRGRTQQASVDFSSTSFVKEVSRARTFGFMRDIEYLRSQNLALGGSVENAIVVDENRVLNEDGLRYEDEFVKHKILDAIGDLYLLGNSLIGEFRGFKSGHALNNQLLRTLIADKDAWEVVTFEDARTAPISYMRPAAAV

Klebsiella pneumoniae = experiment: Antibacterial activity against Klebsiella pneumoniae isolate 21 ATCC 4352; type: functional
[5] = Inhibition of LpxC in Klebsiella pneumoniae isolate 21 ATCC 4352
Acinetobacter baumannii = experiment: Antibacterial activity against Acinetobacter baumannii focus ID 961025; type: functional
Pseudomonas aeruginosa [6] = experiment: Antibacterial activity against Pseudomonas aeruginosa isolate 839 harboring mexAB-oprM deletion mutant; type: functional
Pseudomonas aeruginosa [7] = experiment: Antibacterial activity against Pseudomonas aeruginosa isolate 847; type: functional

| Structure (SMILES) | MIC (Escherichia coli) [µg/mL] | IC50 [1] [µM] | MIC (Pseudomonas aeruginosa [2]) [µg/mL] | IC50 [3] [µM] | IC50 [4] [µM] | MIC (Klebsiella pneumoniae) [µg/mL] | IC50 [5] [µM] | MIC (Acinetobacter baumannii) [µg/mL] | MIC (Pseudomonas aeruginosa [6]) [µg/mL] | MIC (Pseudomonas aeruginosa [7]) [µg/mL] |
| --- | --- | --- | --- | --- | --- | --- | --- | --- | --- | --- |
| C[C@@H](O)[C@H](NC1CCc2cc(C#Cc3ccc(CN4CCOCC4)cc3)ccc21)C(=O)NO (stereo partly drawn) | 0.25 (≈ 0.556 µM) | 0.002 | 8 (≈ 17.8 µM) | 0.382 | 0.004 | 0.125 (≈ 0.278 µM) | 0.002 | > 64 | – | – |
| C[C@@H](O)[C@H](NC1COCc2cc(C#Cc3ccccc3)ccc21)C(=O)NO (stereo partly drawn) | 0.25 (≈ 0.682 µM) | 0.002 | 64 (≈ 175 µM) | 0.049 | 0.014 | < 0.125 | 0.001 | 32 (≈ 87.3 µM) | – | – |
| CC(C)(N)[C@H](NC1COCc2cc(C#Cc3ccc(CN4CCOCC4)cc3)ccc21)C(=O)NO (stereo partly drawn) | 0.5 (≈ 1.04 µM) | 0.005 | 4 (≈ 8.36 µM) | – | 0.008 | – | – | – | 0.25 (≈ 0.522 µM) | 4 (≈ 8.36 µM) |
| C[C@@H](O)[C@H](NC1CCCc2cc(C#Cc3ccc(CN4CCOCC4)cc3)ccc21)C(=O)NO (stereo partly drawn) | 0.25 (≈ 0.539 µM) | 0.0003 | 32 (≈ 69 µM) | 0.08 | 0.002 | < 0.125 | 0.0002 | 128 (≈ 276 µM) | – | – |
| C[C@@H](O)[C@H](N[C@@H]1CCc2cc(C#Cc3ccc(CN4CCOCC4)cc3)ccc21)C(=O)NO | 0.5 (≈ 1.11 µM) | 0.003 | 128 (≈ 285 µM) | 1.99 | 0.008 | 0.125 (≈ 0.278 µM) | 0.007 | 64 (≈ 142 µM) | – | – |
| CCC(N[C@H](C(=O)NO)[C@@H](C)O)c1ccc(C#Cc2ccccc2)cc1 (stereo partly drawn) | 4 (≈ 11.3 µM) | 0.215 | > 64 | 0.566 | 0.214 | 2 (≈ 5.67 µM) | 0.12 | > 64 | – | – |
| COC1CCN(Cc2ccc(C#Cc3ccc4c(c3)CC[C@@H]4N[C@H](C(=O)NO)[C@@H](C)O)cc2)CC1 | 0.5 (≈ 1.05 µM) | 0.005 | 8 (≈ 16.8 µM) | – | 0.003 | 0.06 (≈ 0.126 µM) | 0.006 | – | 1 (≈ 2.09 µM) | – |
| CNCCOCc1ccc(C#Cc2ccc3c(c2)CC[C@@H]3N[C@H](C(=O)NO)[C@@H](C)O)cc1 | 4 (≈ 9.14 µM) | 0.015 | 16 (≈ 36.6 µM) | – | 0.006 | 0.25 (≈ 0.571 µM) | 0.011 | – | 2 (≈ 4.57 µM) | – |
| C[C@@H](O)[C@H](NC1CCCCc2cc(C#Cc3ccccc3)ccc21)C(=O)NO (stereo partly drawn) | 16 (≈ 42.3 µM) | 0.109 | > 128 | 1.16 | 0.333 | 2 (≈ 5.28 µM) | 0.072 | > 128 | – | – |
| C[C@@H](O)[C@H](NC1CCN(C)c2cc(C#Cc3ccccc3)ccc21)C(=O)NO (stereo partly drawn) | 8 (≈ 21.1 µM) | 0.002 | > 128 | 0.124 | 0.015 | 1 (≈ 2.64 µM) | 0.004 | > 128 | – | – |
| C[C@@H](O)[C@H](N[C@H]1CCc2cc(C#Cc3ccc(CN4CCN(CCO)CC4)cc3)ccc21)C(=O)NO | 2 (≈ 4.06 µM) | 0.02 | 4 (≈ 8.12 µM) | – | 0.014 | < 0.125 | 0.021 | – | 1 (≈ 2.03 µM) | – |
| Cc1nccn1Cc1ccc(C#Cc2ccc3c(c2)CC[C@@H]3N[C@H](C(=O)NO)[C@@H](C)O)cc1 | 0.25 (≈ 0.562 µM) | 0.001 | 8 (≈ 18 µM) | – | 0.004 | 0.06 (≈ 0.135 µM) | 0.002 | – | 0.25 (≈ 0.562 µM) | – |
| C[C@@H](O)[C@H](NC1CCc2cc(C#Cc3ccccc3)ccc21)C(=O)NO (stereo partly drawn) | 0.5 (≈ 1.43 µM) | 0.007 | 32 (≈ 91.3 µM) | 0.165 | 0.02 | 0.125 (≈ 0.357 µM) | 0.005 | 16 (≈ 45.7 µM) | – | – |
| C[C@@H](O)[C@H](NC1CCOc2cc(C#Cc3ccccc3)ccc21)C(=O)NO (stereo partly drawn) | 2 (≈ 5.46 µM) | 0.011 | 128 (≈ 349 µM) | 0.036 | 0.013 | < 0.125 | 0.008 | 32 (≈ 87.3 µM) | – | – |
| C[C@@H](O)[C@H](N[C@H]1CCc2cc(C#Cc3ccc(CN4CC[C@@H](O)C4)cc3)ccc21)C(=O)NO | 2 (≈ 4.45 µM) | 0.051 | 8 (≈ 17.8 µM) | – | 0.026 | 0.5 (≈ 1.11 µM) | 0.038 | – | 1 (≈ 2.22 µM) | – |

— ChEMBL document CHEMBL4049409, “Structure-based discovery of LpxC inhibitors” (Bioorg Med Chem Lett, 2017)
